Results taken from US11884675B2, “Heterocyclic compounds as triggering receptor expressed on myeloid cells 2 agonists and methods of use” (AMGEN INC., priority 2020, dated 2024).

Target: hTREM2 (Homo sapiens, UniProt Q9NZC2)
Assay: TREM2 activity by cellular Syk phosphorylation (AlphaScreen/AlphaLISA) in TREM2/DAP12-HEK cells, used for Examples 1-305
Type: cell-based
Parameters: expressed in transfected cells
Conditions: HEK293 Cells
Outline: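 Single-cell-cloned HEK293 cells overexpressing TREM2 and DAP12, seeded 20 h, exposed to test articles (1% final DMSO) for 45 min at room temperature. Lysates read for phospho-Syk (Tyr525/526) vs total Syk by AlphaScreen. Signal normalised as percent of control between isotype IgG and 100 nM anti-TREM2 antibody; 4-parameter logistic fit.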

Chain of hTREM2 (Q9NZC2 19-230): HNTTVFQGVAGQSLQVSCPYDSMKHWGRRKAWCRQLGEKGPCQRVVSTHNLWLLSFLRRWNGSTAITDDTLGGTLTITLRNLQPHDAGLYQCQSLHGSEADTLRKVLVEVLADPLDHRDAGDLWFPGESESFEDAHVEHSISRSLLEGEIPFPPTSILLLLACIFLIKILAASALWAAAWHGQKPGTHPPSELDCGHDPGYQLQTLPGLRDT
Chain of hTREM2 (O43914 22-113 partner): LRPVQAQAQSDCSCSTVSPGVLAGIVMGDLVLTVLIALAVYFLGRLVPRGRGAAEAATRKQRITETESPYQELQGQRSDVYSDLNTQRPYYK

EC50 [nM]	hTREM2 Emax	Structure (SMILES)
500 to 3000	+++ (Emax>150 and ≤250)	Cc1cc([C@@H]2CN(c3nc4nc(C)cnc4c([C@H]4C[C@H](C(F)(F)F)C4)n3)CCO2)cnn1 [Example 281, (R)-4-(7-methyl-4-((1r,3S)-3-(trifluoromethyl)cyclobutyl)pteridin-2-yl)-2-(6-methylpyridazin-4-yl)morpholine]
500 to 3000	++ (Emax>100 and ≤150)	Cc1ncc([C@@H]2C[C@H](c3nc(-c4ccc(Cl)cc4F)c4nc(C)c(C)nc4n3)CCO2)cn1 [Example 282, 4-(4-chloro-2-fluorophenyl)-6,7-dimethyl-2-((2S,4R)-2-(2-methylpyrimidin-5-yl)tetrahydro-2H-pyran-4-yl)pteridine]
500 to 3000	++ (Emax>100 and ≤150)	Cn1cc([C@H]2CN(c3nc(-c4ccc(Cl)cc4F)c4ccc(Cl)nc4n3)CCO2)cn1 [Example 283, (S)-4-(7-chloro-4-(4-chloro-2-fluorophenyl)pyrido[2,3-d]pyrimidin-2-yl)-2-(1-methyl-1H-pyrazol-4-yl)morpholine]
50 to 500	+ (Emax>45 and ≤100)	Cc1nc2nc([C@@H]3C[C@@H](C)O[C@@H](c4cnn(C)c4)C3)cc(-c3ccc(Cl)cc3F)c2nc1C [Example 284, 8-(4-chloro-2-fluorophenyl)-2,3-dimethyl-6-((2R,4R,6R)-2-methyl-6-(1-methyl-1H-pyrazol-4-yl)tetrahydro-2H-pyran-4-yl)pyrido[2,3-b]pyrazine]
50 to 500	++++ (Emax>250)	Cc1ccc(-c2nc([C@@H]3CCO[C@@H](c4ccnc(C)c4)C3)nc3nc(C)c(C)nc23)c(F)c1 [Example 285, 4-(2-fluoro-4-methylphenyl)-6,7-dimethyl-2-((2R,4R)-2-(2-methylpyridin-4-yl)tetrahydro-2H-pyran-4-yl)pteridine]
≤ 50	+++ (Emax>150 and ≤250)	Cc1ccc(-c2nc([C@H]3CCO[C@H](c4ccnc(C)c4)C3)nc3nc(C)c(C)nc23)c(F)c1 [Example 286, 4-(2-fluoro-4-methylphenyl)-6,7-dimethyl-2-((2S,4S)-2-(2-methylpyridin-4-yl)tetrahydro-2H-pyran-4-yl)pteridine]
500 to 3000	+++ (Emax>150 and ≤250)	Cc1ccc2c(-c3ccc(Cl)cc3F)nc([C@H]3CCO[C@@H](c4cnn(C)c4)C3)nc2n1 [Example 287, 4-(4-chloro-2-fluorophenyl)-7-methyl-2-((2R,4S)-2-(1-methyl-1H-pyrazol-4-yl)tetrahydro-2H-pyran-4-yl)pyrido[2,3-d] pyrimidine]
≤ 50	++ (Emax>100 and ≤150)	Cc1ccc2c(-c3ccc(Cl)cc3F)nc([C@@H]3CCO[C@H](c4cnn(C)c4)C3)nc2n1 [Example 288, 4-(4-chloro-2-fluorophenyl)-7-methyl-2-((2S,4R)-2-(1-methyl-1H-pyrazol-4-yl)tetrahydro-2H-pyran-4-yl)pyrido[2,3-d] pyrimidine]
3000 to 100000	++ (Emax>100 and ≤150)	Cc1ccc2c(-c3ccc(F)cc3F)nc([C@H]3CCO[C@@H](c4cnn(C)c4)C3)nc2n1 [Example 289, 4-(2,4-difluorophenyl)-7-methyl-2-((2R,4S)-2-(1-methyl-1H-pyrazol-4-yl)tetrahydro-2H-pyran-4-yl)pyrido[2,3-d] pyrimidine]
50 to 500	+++ (Emax>150 and ≤250)	Cc1ccc2c(-c3ccc(F)cc3F)nc([C@@H]3CCO[C@H](c4cnn(C)c4)C3)nc2n1 [Example 290, 4-(2,4-difluorophenyl)-7-methyl-2-((2S,4R)-2-(1-methyl-1H-pyrazol-4-yl)tetrahydro-2H-pyran-4-yl)pyrido[2,3-d] pyrimidine]
50 to 500	++++ (Emax>250)	Cc1nc2nc(N3CCO[C@@H](c4cnn(C)c4)C3)nc(-c3ccc(Cl)cn3)c2nc1C [Example 291, (S)-4-(4-(5-chloropyridin-2-yl)-6,7-dimethylpteridin-2-yl)-2-(1-methyl-1H-pyrazol-4-yl)morpholine]
